Measured values from patent publication US9771334B2, “Triketone compound and preparation method and use thereof” (SHANDONG CYNDA CHEMICAL CO., LTD., priority 2013, dated 2017).

System: wheat
Assay: Crop safety test (pot culture method)
Assay type: in vivo
Conditions: dose 75 g/ha, plants with about 4-5 leaves, investigated 15 days later
Description: (§1) This test example is for describing crop safety of the compound with a structure shown in Formula (1). Crop safety test method (pot culture method): The test targets are wheat and maize. Take flowerpots with an inner diameter of 12 cm, put composite soil (vegetable garden soil:seedling matrix=1:2, v/v) into them till ¾ of flowerpot height, directly sow the crop seeds (budding rate>85%), cover them with 0.2 cm thick soil, and keep the plants for future use when they grow to have about 4-5 leaves. Each compound is dissolved in N,N-dimethylformamide at doses of 75 g/ha or 150 g/ha and diluted with distilled water containing 0.1% tween-80 emulsifier to form 0.1 g/L (75 g/ha) solution and 0.2 g/L (150 g/ha) solution respectively. The solutions are sprayed through an automatic spray tower. After the solutions on weed leaves are dried in the air, the flowerpots are moved into a greenhouse for cultivation. The result is investigated 15 days later.

Structure (SMILES)	inhibition ratio, Wheat (crop safety) [%]
CS(=O)(=O)c1ccc(C(=O)C2C(=O)CCCC2=O)c([N+](=O)[O-])c1 [Mesotrione, mesotrione, reference compound]	10
Cn1c(=O)n(-c2cccc(Br)c2)c(=O)c2cc(C(=O)C3=C(O)CCCC3=O)ccc21 [Compound 23]	0
CCc1ccccc1-n1c(=O)c2cc(C(=O)C3=C(O)CCCC3=O)ccc2n(C)c1=O [Compound 47]	0

Same assay, conditions: dose 150 g/ha, plants with about 4-5 leaves, investigated 15 days later

Structure (SMILES)	inhibition ratio, Wheat (crop safety) [%]
CS(=O)(=O)c1ccc(C(=O)C2C(=O)CCCC2=O)c([N+](=O)[O-])c1 [Mesotrione, mesotrione, reference compound]	40
Cn1c(=O)n(-c2cccc(Br)c2)c(=O)c2cc(C(=O)C3=C(O)CCCC3=O)ccc21 [Compound 23]	5
CCc1ccccc1-n1c(=O)c2cc(C(=O)C3=C(O)CCCC3=O)ccc2n(C)c1=O [Compound 47]	0

System: maize
Assay: Crop safety test (pot culture method)
Assay type: in vivo
Conditions: dose 75 g/ha, plants with about 4-5 leaves, investigated 15 days later
Description: as §1

Structure (SMILES)	inhibition ratio, Maize (crop safety) [%]
CS(=O)(=O)c1ccc(C(=O)C2C(=O)CCCC2=O)c([N+](=O)[O-])c1 [Mesotrione, mesotrione, reference compound]	7
Cn1c(=O)n(-c2cccc(Br)c2)c(=O)c2cc(C(=O)C3=C(O)CCCC3=O)ccc21 [Compound 23]	0
CCc1ccccc1-n1c(=O)c2cc(C(=O)C3=C(O)CCCC3=O)ccc2n(C)c1=O [Compound 47]	0

Same assay, conditions: dose 150 g/ha

Structure (SMILES)	safety to maize fields (in words)
Cn1c(=O)n(-c2cccc(Br)c2)c(=O)c2cc(C(=O)C3=C(O)CCCC3=O)ccc21 [Compound 23]	highly safe
CCc1ccccc1-n1c(=O)c2cc(C(=O)C3=C(O)CCCC3=O)ccc2n(C)c1=O [Compound 47]	highly safe

Same assay, conditions: dose 150 g/ha, plants with about 4-5 leaves, investigated 15 days later

Structure (SMILES)	inhibition ratio, Maize (crop safety) [%]
CS(=O)(=O)c1ccc(C(=O)C2C(=O)CCCC2=O)c([N+](=O)[O-])c1 [Mesotrione, mesotrione, reference compound]	15
Cn1c(=O)n(-c2cccc(Br)c2)c(=O)c2cc(C(=O)C3=C(O)CCCC3=O)ccc21 [Compound 23]	0
CCc1ccccc1-n1c(=O)c2cc(C(=O)C3=C(O)CCCC3=O)ccc2n(C)c1=O [Compound 47]	0

System: echinochloa crusgalli
Assay: Herbicidal activity, pot culture method (primary and secondary screening test)
Assay type: in vivo
Conditions: dose 37.5 g/ha, sprayed at 3-leaf stage, investigated 15 days later
Method in brief: (§2)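 Percent growth inhibition of weeds sprayed at the 3-leaf stage, 150 g/ha in the primary screen and a lower dose in the secondary screen, scored 15 days after treatment under greenhouse conditions.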

Structure (SMILES)	inhibition ratio, Echinochloa crusgalli [%]
CS(=O)(=O)c1ccc(C(=O)C2C(=O)CCCC2=O)c([N+](=O)[O-])c1 [Mesotrione, mesotrione, reference compound]	50
Cn1c(=O)n(-c2cccc(Br)c2)c(=O)c2cc(C(=O)C3=C(O)CCCC3=O)ccc21 [Compound 23]	20
CCc1ccccc1-n1c(=O)c2cc(C(=O)C3=C(O)CCCC3=O)ccc2n(C)c1=O [Compound 47]	80

Same assay, conditions: dose 75 g/ha, sprayed at 3-leaf stage, investigated 15 days later

Structure (SMILES)	inhibition ratio, Echinochloa crusgalli [%]
CS(=O)(=O)c1ccc(C(=O)C2C(=O)CCCC2=O)c([N+](=O)[O-])c1 [Mesotrione, mesotrione, reference compound]	70
Cn1c(=O)n(-c2cccc(Br)c2)c(=O)c2cc(C(=O)C3=C(O)CCCC3=O)ccc21 [Compound 23]	20
CCc1ccccc1-n1c(=O)c2cc(C(=O)C3=C(O)CCCC3=O)ccc2n(C)c1=O [Compound 47]	88

Same assay, conditions: primary screening, pot culture, 150 g/ha, sprayed at 3-leaf stage, result 15 days later

Structure (SMILES)	herbicidal activity inhibition ratio (%), Echinochloa crusgalli [%]
Cn1c(=O)n(-c2cccc(Br)c2)c(=O)c2cc(C(=O)C3=C(O)CCCC3=O)ccc21 [Compound 23]	85
CCc1ccccc1-n1c(=O)c2cc(C(=O)C3=C(O)CCCC3=O)ccc2n(C)c1=O [Compound 47]	85

System: amaranthus retroflexus
Assay: as above
Assay type: in vivo
Conditions: dose 37.5 g/ha, sprayed at 3-leaf stage, investigated 15 days later
Method in brief: as §2

Structure (SMILES)	inhibition ratio, Amaranthus retroflexus [%]
CS(=O)(=O)c1ccc(C(=O)C2C(=O)CCCC2=O)c([N+](=O)[O-])c1 [Mesotrione, mesotrione, reference compound]	70
Cn1c(=O)n(-c2cccc(Br)c2)c(=O)c2cc(C(=O)C3=C(O)CCCC3=O)ccc21 [Compound 23]	100
CCc1ccccc1-n1c(=O)c2cc(C(=O)C3=C(O)CCCC3=O)ccc2n(C)c1=O [Compound 47]	90

Same assay, conditions: dose 75 g/ha, sprayed at 3-leaf stage, investigated 15 days later

Structure (SMILES)	inhibition ratio, Amaranthus retroflexus [%]
CS(=O)(=O)c1ccc(C(=O)C2C(=O)CCCC2=O)c([N+](=O)[O-])c1 [Mesotrione, mesotrione, reference compound]	75
Cn1c(=O)n(-c2cccc(Br)c2)c(=O)c2cc(C(=O)C3=C(O)CCCC3=O)ccc21 [Compound 23]	100
CCc1ccccc1-n1c(=O)c2cc(C(=O)C3=C(O)CCCC3=O)ccc2n(C)c1=O [Compound 47]	95

Same assay, conditions: primary screening, pot culture, 150 g/ha, sprayed at 3-leaf stage, result 15 days later

Structure (SMILES)	herbicidal activity inhibition ratio (%), Amaranthus retroflexus [%]
Cn1c(=O)n(-c2cccc(Br)c2)c(=O)c2cc(C(=O)C3=C(O)CCCC3=O)ccc21 [Compound 23]	95
CCc1ccccc1-n1c(=O)c2cc(C(=O)C3=C(O)CCCC3=O)ccc2n(C)c1=O [Compound 47]	100

System: digitaria sanguinalis
Assay: as above
Assay type: in vivo
Conditions: dose 37.5 g/ha, sprayed at 3-leaf stage, investigated 15 days later
Method in brief: as §2

Structure (SMILES)	inhibition ratio, Digitaria sanguinalis [%]
CS(=O)(=O)c1ccc(C(=O)C2C(=O)CCCC2=O)c([N+](=O)[O-])c1 [Mesotrione, mesotrione, reference compound]	40
Cn1c(=O)n(-c2cccc(Br)c2)c(=O)c2cc(C(=O)C3=C(O)CCCC3=O)ccc21 [Compound 23]	20
CCc1ccccc1-n1c(=O)c2cc(C(=O)C3=C(O)CCCC3=O)ccc2n(C)c1=O [Compound 47]	80

Same assay, conditions: dose 75 g/ha, sprayed at 3-leaf stage, investigated 15 days later

Structure (SMILES)	inhibition ratio, Digitaria sanguinalis [%]
CS(=O)(=O)c1ccc(C(=O)C2C(=O)CCCC2=O)c([N+](=O)[O-])c1 [Mesotrione, mesotrione, reference compound]	70
Cn1c(=O)n(-c2cccc(Br)c2)c(=O)c2cc(C(=O)C3=C(O)CCCC3=O)ccc21 [Compound 23]	65
CCc1ccccc1-n1c(=O)c2cc(C(=O)C3=C(O)CCCC3=O)ccc2n(C)c1=O [Compound 47]	85

Same assay, conditions: primary screening, pot culture, 150 g/ha, sprayed at 3-leaf stage, result 15 days later

Structure (SMILES)	herbicidal activity inhibition ratio (%), Digitaria sanguinalis [%]
Cn1c(=O)n(-c2cccc(Br)c2)c(=O)c2cc(C(=O)C3=C(O)CCCC3=O)ccc21 [Compound 23]	30
CCc1ccccc1-n1c(=O)c2cc(C(=O)C3=C(O)CCCC3=O)ccc2n(C)c1=O [Compound 47]	95

System: eclipta prostrata
Assay: as above
Assay type: in vivo
Conditions: dose 37.5 g/ha, sprayed at 3-leaf stage, investigated 15 days later
Method in brief: as §2

Structure (SMILES)	inhibition ratio, Eclipta prostrata [%]
CS(=O)(=O)c1ccc(C(=O)C2C(=O)CCCC2=O)c([N+](=O)[O-])c1 [Mesotrione, mesotrione, reference compound]	75
Cn1c(=O)n(-c2cccc(Br)c2)c(=O)c2cc(C(=O)C3=C(O)CCCC3=O)ccc21 [Compound 23]	100
CCc1ccccc1-n1c(=O)c2cc(C(=O)C3=C(O)CCCC3=O)ccc2n(C)c1=O [Compound 47]	20

Same assay, conditions: dose 75 g/ha, sprayed at 3-leaf stage, investigated 15 days later

Structure (SMILES)	inhibition ratio, Eclipta prostrata [%]
CS(=O)(=O)c1ccc(C(=O)C2C(=O)CCCC2=O)c([N+](=O)[O-])c1 [Mesotrione, mesotrione, reference compound]	85
Cn1c(=O)n(-c2cccc(Br)c2)c(=O)c2cc(C(=O)C3=C(O)CCCC3=O)ccc21 [Compound 23]	100
CCc1ccccc1-n1c(=O)c2cc(C(=O)C3=C(O)CCCC3=O)ccc2n(C)c1=O [Compound 47]	30

Same assay, conditions: primary screening, pot culture, 150 g/ha, sprayed at 3-leaf stage, result 15 days later

Structure (SMILES)	herbicidal activity inhibition ratio (%), Eclipta prostrata [%]
Cn1c(=O)n(-c2cccc(Br)c2)c(=O)c2cc(C(=O)C3=C(O)CCCC3=O)ccc21 [Compound 23]	50
CCc1ccccc1-n1c(=O)c2cc(C(=O)C3=C(O)CCCC3=O)ccc2n(C)c1=O [Compound 47]	85

System: setaria viridis
Assay: as above
Assay type: in vivo
Conditions: dose 37.5 g/ha, sprayed at 3-leaf stage, investigated 15 days later
Method in brief: as §2

Structure (SMILES)	inhibition ratio, Setaria viridis [%]
CS(=O)(=O)c1ccc(C(=O)C2C(=O)CCCC2=O)c([N+](=O)[O-])c1 [Mesotrione, mesotrione, reference compound]	0
Cn1c(=O)n(-c2cccc(Br)c2)c(=O)c2cc(C(=O)C3=C(O)CCCC3=O)ccc21 [Compound 23]	30
CCc1ccccc1-n1c(=O)c2cc(C(=O)C3=C(O)CCCC3=O)ccc2n(C)c1=O [Compound 47]	88

Same assay, conditions: dose 75 g/ha, sprayed at 3-leaf stage, investigated 15 days later

Structure (SMILES)	inhibition ratio, Setaria viridis [%]
CS(=O)(=O)c1ccc(C(=O)C2C(=O)CCCC2=O)c([N+](=O)[O-])c1 [Mesotrione, mesotrione, reference compound]	0
Cn1c(=O)n(-c2cccc(Br)c2)c(=O)c2cc(C(=O)C3=C(O)CCCC3=O)ccc21 [Compound 23]	50
CCc1ccccc1-n1c(=O)c2cc(C(=O)C3=C(O)CCCC3=O)ccc2n(C)c1=O [Compound 47]	90

Same assay, conditions: primary screening, pot culture, 150 g/ha, sprayed at 3-leaf stage, result 15 days later

Structure (SMILES)	herbicidal activity inhibition ratio (%), Setaria viridis [%]
Cn1c(=O)n(-c2cccc(Br)c2)c(=O)c2cc(C(=O)C3=C(O)CCCC3=O)ccc21 [Compound 23]	45
CCc1ccccc1-n1c(=O)c2cc(C(=O)C3=C(O)CCCC3=O)ccc2n(C)c1=O [Compound 47]	83

Same assay, conditions: secondary screening, 37.5 and 75 g/ha

Structure (SMILES)	prevention and control of setaria viridis (in words)
CS(=O)(=O)c1ccc(C(=O)C2C(=O)CCCC2=O)c([N+](=O)[O-])c1 [Mesotrione, mesotrione, reference compound]	cannot be prevented and controlled

System: abutilon theophrasti
Assay: as above
Assay type: in vivo
Conditions: dose 37.5 g/ha, sprayed at 3-leaf stage, investigated 15 days later
Method in brief: as §2

Structure (SMILES)	inhibition ratio, Abutilon theophrasti [%]
CS(=O)(=O)c1ccc(C(=O)C2C(=O)CCCC2=O)c([N+](=O)[O-])c1 [Mesotrione, mesotrione, reference compound]	100
Cn1c(=O)n(-c2cccc(Br)c2)c(=O)c2cc(C(=O)C3=C(O)CCCC3=O)ccc21 [Compound 23]	100
CCc1ccccc1-n1c(=O)c2cc(C(=O)C3=C(O)CCCC3=O)ccc2n(C)c1=O [Compound 47]	60

Same assay, conditions: dose 75 g/ha, sprayed at 3-leaf stage, investigated 15 days later

Structure (SMILES)	inhibition ratio, Abutilon theophrasti [%]
CS(=O)(=O)c1ccc(C(=O)C2C(=O)CCCC2=O)c([N+](=O)[O-])c1 [Mesotrione, mesotrione, reference compound]	100
Cn1c(=O)n(-c2cccc(Br)c2)c(=O)c2cc(C(=O)C3=C(O)CCCC3=O)ccc21 [Compound 23]	100
CCc1ccccc1-n1c(=O)c2cc(C(=O)C3=C(O)CCCC3=O)ccc2n(C)c1=O [Compound 47]	90

Same assay, conditions: primary screening, pot culture, 150 g/ha, sprayed at 3-leaf stage, result 15 days later

Structure (SMILES)	herbicidal activity inhibition ratio (%), Abutilon theophrasti [%]
Cn1c(=O)n(-c2cccc(Br)c2)c(=O)c2cc(C(=O)C3=C(O)CCCC3=O)ccc21 [Compound 23]	85
CCc1ccccc1-n1c(=O)c2cc(C(=O)C3=C(O)CCCC3=O)ccc2n(C)c1=O [Compound 47]	100
